From ChEMBL document CHEMBL1158350, “Physicochemical and biological characterization of novel macrocycles derived from o-phthalaldehyde” (2009)
Values after ≈ are worked out from the molar mass of the structure shown. Active and inactive are the calls of the source. The rule behind the calls is not given here.

Columns and labels:
Bacillus subtilis [1] = assay: Antibacterial activity against Bacillus subtilis MTCC 619 at 1000 ug/ml after 24 hrs by agar diffusion method; format: functional; details: MTCC 619, 24 h, read-out: IZ
Staphylococcus aureus [2] = assay: Antibacterial activity against Staphylococcus aureus MTCC 96 at 1000 ug/ml after 24 hrs by agar diffusion method; format: functional; details: MTCC 96, 24 h, read-out: IZ
Escherichia coli [3] = assay: Antibacterial activity against Escherichia coli MTCC 722 at 1000 ug/ml after 24 hrs by agar diffusion method; format: functional; details: MTCC 722, 24 h, read-out: IZ
Klebsiella pneumoniae [4] = assay: Antibacterial activity against Klebsiella pneumoniae MTCC 109 at 1000 ug/ml after 24 hrs by agar diffusion method; format: functional; details: MTCC 109, 24 h, read-out: IZ
Aspergillus flavus [5] = assay: Antifungal activity against Aspergillus flavus at 500 ug/ml after 3 days by diffusion method; format: functional, organism-based
Aspergillus flavus [6] = assay: Antifungal activity against Aspergillus flavus at 1000 ug/ml after 3 days by diffusion method; format: functional, organism-based
Fusarium [7] = assay: Antifungal activity against Fusarium at 500 ug/ml after 3 days by diffusion method; format: functional, organism-based
Fusarium [8] = assay: Antifungal activity against Fusarium at 1000 ug/ml after 3 days by diffusion method; format: functional, organism-based
Bacillus subtilis [9] = assay: Antibacterial activity against Bacillus subtilis MTCC 619 after 24 hrs by liquid dilution method; format: functional; details: MTCC 619, 24 h
Staphylococcus aureus [10] = assay: Antibacterial activity against Staphylococcus aureus MTCC 96 after 24 hrs by liquid dilution method; format: functional; details: MTCC 96, 24 h
Escherichia coli [11] = assay: Antibacterial activity against Escherichia coli MTCC 722 after 24 hrs by liquid dilution method; format: functional; details: MTCC 722, 24 h
Klebsiella pneumoniae [12] = assay: Antibacterial activity against Klebsiella pneumoniae MTCC 109 after 24 hrs by liquid dilution method; format: functional; details: MTCC 109, 24 h

For C1=N/c2ccccc2OCCCOc2ccccc2/N=C/c2ccccc2/1, which zone of inhibition at 1000 µg/mL (Bacillus subtilis [1]) is on record?
Its zone of inhibition at 1000 µg/mL is 10 mm.

And the zone of inhibition at 1000 µg/mL (Staphylococcus aureus [2])?
Its zone of inhibition at 1000 µg/mL is 11 mm.

What about the zone of inhibition at 1000 µg/mL (Escherichia coli [3]) of the same compound?
Its zone of inhibition at 1000 µg/mL is 11 mm.

And the zone of inhibition at 1000 µg/mL (Klebsiella pneumoniae [4])?
The zone of inhibition at 1000 µg/mL was 12 mm.

And the Activity (Aspergillus flavus [5])?
The Activity was “Active”.

And the Activity (Aspergillus flavus [6])?
Its Activity is “Active”.

What about the Activity (Fusarium [7]) of the same compound?
Its Activity is “Active”.

And the Activity (Fusarium [8])?
The Activity was “Active”.

With CN[C@@H]1[C@H](O[C@H]2[C@H](O[C@H]3[C@H](O)[C@@H](O)[C@H](N=C(N)N)[C@@H](O)[C@@H]3N=C(N)N)O[C@@H](C)[C@]2(O)C=O)O[C@@H](CO)[C@H](O)[C@H]1O [STREPTOMYCIN] as the compound, how does the zone of inhibition at 1000 µg/mL (Bacillus subtilis [1]) read?
The zone of inhibition at 1000 µg/mL was 10 mm.

What about the zone of inhibition at 1000 µg/mL (Staphylococcus aureus [2]) of the same compound?
The zone of inhibition at 1000 µg/mL was 12 mm.

What about the zone of inhibition at 1000 µg/mL (Escherichia coli [3]) of the same compound?
The zone of inhibition at 1000 µg/mL was 6 mm.

What about the zone of inhibition at 1000 µg/mL (Klebsiella pneumoniae [4]) of the same compound?
Its zone of inhibition at 1000 µg/mL is 6 mm.

And the MIC (Bacillus subtilis [9])?
Its MIC is 2 µg/mL (≈ 3.44 µM).

Which results are given for C1=N/c2cc3ccccc3cc2OCCCOc2cc3ccccc3cc2/N=C/c2ccccc2/1?
zone of inhibition at 1000 µg/mL (Bacillus subtilis [1]): 13 mm; zone of inhibition at 1000 µg/mL (Staphylococcus aureus [2]): 14 mm; zone of inhibition at 1000 µg/mL (Escherichia coli [3]): 13 mm; zone of inhibition at 1000 µg/mL (Klebsiella pneumoniae [4]): 11 mm; Activity (Aspergillus flavus [5]): Active; Activity (Aspergillus flavus [6]): Active; Activity (Fusarium [7]): Active; Activity (Fusarium [8]): Active

With C1=N/c2cc3ccccc3cc2OCCOc2cc3ccccc3cc2/N=C/c2ccccc2/1 as the compound, how does the zone of inhibition at 1000 µg/mL (Bacillus subtilis [1]) read?
The zone of inhibition at 1000 µg/mL was 15 mm.

And the zone of inhibition at 1000 µg/mL (Staphylococcus aureus [2])?
The zone of inhibition at 1000 µg/mL was 15 mm.

And the zone of inhibition at 1000 µg/mL (Escherichia coli [3])?
The zone of inhibition at 1000 µg/mL was 14 mm.

And the zone of inhibition at 1000 µg/mL (Klebsiella pneumoniae [4])?
Its zone of inhibition at 1000 µg/mL is 14 mm.

And the Activity (Aspergillus flavus [5])?
Its Activity is “Active”.

What about the Activity (Aspergillus flavus [6]) of the same compound?
Its Activity is “Active”.

What about the Activity (Fusarium [7]) of the same compound?
The Activity was “Active”.

And the Activity (Fusarium [8])?
Its Activity is “Active”.

What does the source list for C1=N/c2ccccc2OCCOc2ccccc2/N=C/c2ccccc2/1?
zone of inhibition at 1000 µg/mL (Bacillus subtilis [1]): 11 mm; zone of inhibition at 1000 µg/mL (Staphylococcus aureus [2]): 12 mm; zone of inhibition at 1000 µg/mL (Escherichia coli [3]): 10 mm; zone of inhibition at 1000 µg/mL (Klebsiella pneumoniae [4]): 12 mm; Activity (Aspergillus flavus [5]): Active; Activity (Aspergillus flavus [6]): Active; Activity (Fusarium [7]): Active; Activity (Fusarium [8]): Active

CC1(C)S[C@@H]2[C@H](NC(=O)[C@H](N)c3ccccc3)C(=O)N2[C@H]1C(=O)O [AMPICILLIN] was tested. Which zone of inhibition at 1000 µg/mL (Bacillus subtilis [1]) did it give?
The zone of inhibition at 1000 µg/mL was 11 mm.

What about the zone of inhibition at 1000 µg/mL (Staphylococcus aureus [2]) of the same compound?
The zone of inhibition at 1000 µg/mL was 13 mm.

What about the zone of inhibition at 1000 µg/mL (Escherichia coli [3]) of the same compound?
The zone of inhibition at 1000 µg/mL was 8 mm.

And the zone of inhibition at 1000 µg/mL (Klebsiella pneumoniae [4])?
The zone of inhibition at 1000 µg/mL was 7 mm.

Which results are given for Cc1cccc2c1/N=C/c1ccccc1/C=N/c1c(C)cccc1OCCO2?
zone of inhibition at 1000 µg/mL (Bacillus subtilis [1]): 12 mm; zone of inhibition at 1000 µg/mL (Staphylococcus aureus [2]): 14 mm; zone of inhibition at 1000 µg/mL (Escherichia coli [3]): 11 mm; zone of inhibition at 1000 µg/mL (Klebsiella pneumoniae [4]): 12 mm; Activity (Aspergillus flavus [5]): Active; Activity (Aspergillus flavus [6]): Active; Activity (Fusarium [7]): Active; Activity (Fusarium [8]): Active

Which zone of inhibition at 1000 µg/mL (Bacillus subtilis [1]) does the source give for Cc1cccc2c1/N=C/c1ccccc1/C=N/c1c(C)cccc1OCCCO2 here?
The zone of inhibition at 1000 µg/mL was 13 mm.

What about the zone of inhibition at 1000 µg/mL (Staphylococcus aureus [2]) of the same compound?
The zone of inhibition at 1000 µg/mL was 15 mm.

What about the zone of inhibition at 1000 µg/mL (Escherichia coli [3]) of the same compound?
Its zone of inhibition at 1000 µg/mL is 12 mm.

And the zone of inhibition at 1000 µg/mL (Klebsiella pneumoniae [4])?
The zone of inhibition at 1000 µg/mL was 11 mm.

And the Activity (Aspergillus flavus [5])?
The Activity was “Active”.

What about the Activity (Aspergillus flavus [6]) of the same compound?
Its Activity is “Active”.

What about the Activity (Fusarium [7]) of the same compound?
Its Activity is “Active”.

And the Activity (Fusarium [8])?
Its Activity is “Active”.

With C1=N/c2ncccc2OCCOc2cccnc2/N=C/c2ccccc2/1 as the compound, how does the zone of inhibition at 1000 µg/mL (Bacillus subtilis [1]) read?
The zone of inhibition at 1000 µg/mL was 38 mm.

And the zone of inhibition at 1000 µg/mL (Staphylococcus aureus [2])?
The zone of inhibition at 1000 µg/mL was 35 mm.

And the zone of inhibition at 1000 µg/mL (Escherichia coli [3])?
The zone of inhibition at 1000 µg/mL was 40 mm.

What about the zone of inhibition at 1000 µg/mL (Klebsiella pneumoniae [4]) of the same compound?
Its zone of inhibition at 1000 µg/mL is 32 mm.

And the MIC (Bacillus subtilis [9])?
Its MIC is 10 µg/mL (≈ 29 µM).

What about the MIC (Staphylococcus aureus [10]) of the same compound?
Its MIC is 5 µg/mL (≈ 14.5 µM).

And the MIC (Escherichia coli [11])?
The MIC was 1 µg/mL (≈ 2.9 µM).

What about the MIC (Klebsiella pneumoniae [12]) of the same compound?
Its MIC is 2 µg/mL (≈ 5.81 µM).

What about the Activity (Aspergillus flavus [5]) of the same compound?
Its Activity is “Active”.

And the Activity (Aspergillus flavus [6])?
The Activity was “Active”.

What about the Activity (Fusarium [7]) of the same compound?
The Activity was “Active”.

What about the Activity (Fusarium [8]) of the same compound?
Its Activity is “Active”.

Which zone of inhibition at 1000 µg/mL (Bacillus subtilis [1]) does the source give for C1=N/c2ncccc2OCCCOc2cccnc2/N=C/c2ccccc2/1 here?
Its zone of inhibition at 1000 µg/mL is 35 mm.

And the zone of inhibition at 1000 µg/mL (Staphylococcus aureus [2])?
Its zone of inhibition at 1000 µg/mL is 30 mm.

What about the zone of inhibition at 1000 µg/mL (Escherichia coli [3]) of the same compound?
Its zone of inhibition at 1000 µg/mL is 32 mm.

What about the zone of inhibition at 1000 µg/mL (Klebsiella pneumoniae [4]) of the same compound?
The zone of inhibition at 1000 µg/mL was 29 mm.

And the MIC (Bacillus subtilis [9])?
The MIC was 10 µg/mL (≈ 27.9 µM).

And the MIC (Staphylococcus aureus [10])?
Its MIC is 2 µg/mL (≈ 5.58 µM).

And the MIC (Escherichia coli [11])?
The MIC was 2 µg/mL (≈ 5.58 µM).

What about the MIC (Klebsiella pneumoniae [12]) of the same compound?
The MIC was 2 µg/mL (≈ 5.58 µM).

What about the Activity (Aspergillus flavus [5]) of the same compound?
Its Activity is “Active”.

And the Activity (Aspergillus flavus [6])?
Its Activity is “Active”.

And the Activity (Fusarium [7])?
Its Activity is “Active”.

And the Activity (Fusarium [8])?
Its Activity is “Active”.

CO[C@H]1/C=C/O[C@@]2(C)Oc3c(C)c(O)c4c(O)c(c(/C=N/N5CCN(C)CC5)c(O)c4c3C2=O)NC(=O)/C(C)=C\C=C\[C@H](C)[C@H](O)[C@@H](C)[C@@H](O)[C@@H](C)[C@H](OC(C)=O)[C@@H]1C [RIFAMPIN] was tested. Which zone of inhibition at 1000 µg/mL (Bacillus subtilis [1]) did it give?
Its zone of inhibition at 1000 µg/mL is 51 mm.

And the zone of inhibition at 1000 µg/mL (Staphylococcus aureus [2])?
Its zone of inhibition at 1000 µg/mL is 49 mm.

And the zone of inhibition at 1000 µg/mL (Escherichia coli [3])?
The zone of inhibition at 1000 µg/mL was 48 mm.

And the zone of inhibition at 1000 µg/mL (Klebsiella pneumoniae [4])?
Its zone of inhibition at 1000 µg/mL is 45 mm.

What about the MIC (Bacillus subtilis [9]) of the same compound?
Its MIC is 10 µg/mL (≈ 12.2 µM).

And the MIC (Staphylococcus aureus [10])?
The MIC was 0.25 µg/mL (≈ 0.304 µM).

What about the MIC (Escherichia coli [11]) of the same compound?
Its MIC is 0.25 µg/mL (≈ 0.304 µM).

What about the MIC (Klebsiella pneumoniae [12]) of the same compound?
The MIC was 0.25 µg/mL (≈ 0.304 µM).

For Cc1ccc2c(c1)/N=C/c1ccccc1/C=N/c1cc(C)ccc1OCCO2, which zone of inhibition at 1000 µg/mL (Bacillus subtilis [1]) is on record?
Its zone of inhibition at 1000 µg/mL is 14 mm.

What about the zone of inhibition at 1000 µg/mL (Staphylococcus aureus [2]) of the same compound?
Its zone of inhibition at 1000 µg/mL is 12 mm.

And the zone of inhibition at 1000 µg/mL (Escherichia coli [3])?
The zone of inhibition at 1000 µg/mL was 13 mm.

What about the zone of inhibition at 1000 µg/mL (Klebsiella pneumoniae [4]) of the same compound?
Its zone of inhibition at 1000 µg/mL is 10 mm.

What about the Activity (Aspergillus flavus [5]) of the same compound?
The Activity was “Active”.

What about the Activity (Aspergillus flavus [6]) of the same compound?
Its Activity is “Active”.

What about the Activity (Fusarium [7]) of the same compound?
The Activity was “Active”.

And the Activity (Fusarium [8])?
The Activity was “Active”.

Which results are given for Cc1ccc2c(c1)/N=C/c1ccccc1/C=N/c1cc(C)ccc1OCCCO2?
zone of inhibition at 1000 µg/mL (Bacillus subtilis [1]): 13 mm; zone of inhibition at 1000 µg/mL (Staphylococcus aureus [2]): 14 mm; zone of inhibition at 1000 µg/mL (Escherichia coli [3]): 11 mm; zone of inhibition at 1000 µg/mL (Klebsiella pneumoniae [4]): 12 mm; Activity (Aspergillus flavus [5]): Active; Activity (Aspergillus flavus [6]): Active; Activity (Fusarium [7]): Active; Activity (Fusarium [8]): Active
